Assays:
[1] = tested on: HT29 tumor cell line and other cell lines; experiment: Cell tests: dark toxicity and phototoxicity, XTT cell viability assay; assay type: cell-based, human, mouse; settings: cell tests of example 3; 2 or 10 μM
Method: The photosensitizing activity was determined in the following cell lines: • HT29 (human colon adenocarcinoma cell line) • L929 (mouse fibroblast cell line) • A431 (human epidermoid carcinoma cell line) • A253 (submaxillary salivary gland, epidermoid cell line) • CAL-27 (human tongue squamous cell carcinoma cell line) • J774A.1 (Mouse BALB/c monocyte macrophage).
The cell lines were grown in DMEM (c.c.pro GmbH) supplemented with 10% heat-inactivated fetal calf serum (FCS, c.c.pro GmbH), 1% penicillin (10000 IU) and streptomycin (10000 μg/ml, c.c.pro GmbH). Cells were kept as a monolayer culture in a humidified incubator (5% CO2 in air at 37° C.).
A photosensitizer stock solution (2 mM) was performed in DMSO and was kept in the dark at 4° C. Further dilution was performed in DMEM medium without phenol red supplemented with 10% FCS to reach a final photosensitizer concentration of 2 or 10 μM, respectively.
After seeding the cells in micro plates, the cells were incubated with fresh medium (DMEM without phenol red) containing 10% FCS with 2 or 10 μM of the photosensitizer for 24 h before light exposure. […]
The cell viability was assessed by the XTT assay. […]
The absorbance of the samples was measured with a microplate reader (infinite 200, Tecan Group Ltd.) at a wavelength of 490 nm.

[2] = tested on: Staphylococcus aureus DSM 11729; experiment: Antibacterial testing (CFU/ml count, with and without white light); assay type: cell-based; settings: for antibacterial activity in the presence of complex media (serum addition): PBS supplemented with 10% horse blood serum; for antibacterial activity in the presence of complex media (serum addition) / antibacterial activity of compounds which carry just one bromine atom: bacterium not given; for antibacterial activity against S. aureus in the absence of light: highest tested concentration of 100 μmol
Method: The organisms studied were Staphylococcus aureus DSM 11729, Gram-positive and Pseudomonas aeruginosa DSM 1117, Gram-negative.
Cultures cells are suspended in sterile phosphate-buffered saline (PBS) or sterile PBS supplemented with 10% sterile horse blood serum. The bacterial suspensions are placed into sterile black well plates with clear bottoms. Concentrations of photosensitizer used in the study were as follows: 100 μM, 10 μM and 1 μM.
After an incubation time period of 30 minutes, the samples are exposed to white light, with a power density and irradiation time resulting in an energy fluency of about 100 J/cm^2. Control plates contained no photosensitizer and are not exposed to laser light. The control samples for dark toxicity are only exposed to photosensitizer without any illumination.
After irradiation, the samples are removed and suspended again in the culture media. The numbers of colony-forming units (CFU/ml) are enumerated after an adequate incubation time period.

Compound | toxicity in cells [1] | specific activity against bacteria ([2]; compared with toxicity in cells) | antibacterial activity in the presence of complex media (serum addition) [2] | antibacterial activity against S. aureus in the absence of light [2] | antibacterial activity of compounds which carry just one bromine atom [2]
1,3,5,7-Tetramethyl-2,6-dibromo-8(4-propargylamino-3-nitrophenyl)-boron dipyrromethene [Example 4.5] | low toxicity | specifically active against bacteria | – | – | –
1,3,5,7-Tetramethyl-2,6-dibromo-8-(4-N-hydroxy-ethylamino-3-nitrophenyl)-boron dipyrromethene [Example 4.2] | – | – | antibacterial activity is also observed | high antibacterial activity | –
2-Bromo-8-(4-butyloxy-2,3,5,6-tetrafluorophenyl)-boron dipyrromethene [Example 4.11] | – | – | – | – | strong antibacterial activity
C#CCNc1ccc(C2=C3C=CC=[N+]3[B-](F)(F)n3cc(Br)cc32)cc1[N+](=O)[O-] [Example 4.1, 2-Bromo-8-(4-N-propargylamino-3-nitrophenyl)-boron dipyrromethene] | – | – | antibacterial activity is also observed | high antibacterial activity | strong antibacterial activity
